Target: T1, canine TRPM8 (Canis lupus familiaris, UniProt Q1A7N1)
T1 construct: expressed in transfected cells
Assay: In Vitro Canine TRPM8 Functional Assay (Ca2+ fluorescence, icilin activation)
Assay type: cell-based
Conditions: for inhibition at 0.5 µM: HEK293, 0.5 μM compound; for inhibition at 0.5 µM / inhibition at 0.2 µM / % Inh @ 0.2 μM: canine TRPM8 HEK293, icilin; for IC50: HEK293 cells stably expressing canine TRPM8, icilin activation, Ca2+ fluorescence; for inhibition at 0.2 µM: HEK293, 0.2 μM compound; for % Inh @ 0.2 μM: 0.2 μM compound
Procedure, shortened: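 Antagonism read as inhibition of the intracellular Ca2+ rise evoked by icilin (~EC80), measured by FLIPR or FDSS. Stable canine TRPM8 HEK293 line, Calcium 3 dye; 5 min compound preincubation. Normalised, basal-corrected peak fluorescence from quadruplicates fitted to sigmoidal curves.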

T1 sequence (Q1A7N1 1-1104): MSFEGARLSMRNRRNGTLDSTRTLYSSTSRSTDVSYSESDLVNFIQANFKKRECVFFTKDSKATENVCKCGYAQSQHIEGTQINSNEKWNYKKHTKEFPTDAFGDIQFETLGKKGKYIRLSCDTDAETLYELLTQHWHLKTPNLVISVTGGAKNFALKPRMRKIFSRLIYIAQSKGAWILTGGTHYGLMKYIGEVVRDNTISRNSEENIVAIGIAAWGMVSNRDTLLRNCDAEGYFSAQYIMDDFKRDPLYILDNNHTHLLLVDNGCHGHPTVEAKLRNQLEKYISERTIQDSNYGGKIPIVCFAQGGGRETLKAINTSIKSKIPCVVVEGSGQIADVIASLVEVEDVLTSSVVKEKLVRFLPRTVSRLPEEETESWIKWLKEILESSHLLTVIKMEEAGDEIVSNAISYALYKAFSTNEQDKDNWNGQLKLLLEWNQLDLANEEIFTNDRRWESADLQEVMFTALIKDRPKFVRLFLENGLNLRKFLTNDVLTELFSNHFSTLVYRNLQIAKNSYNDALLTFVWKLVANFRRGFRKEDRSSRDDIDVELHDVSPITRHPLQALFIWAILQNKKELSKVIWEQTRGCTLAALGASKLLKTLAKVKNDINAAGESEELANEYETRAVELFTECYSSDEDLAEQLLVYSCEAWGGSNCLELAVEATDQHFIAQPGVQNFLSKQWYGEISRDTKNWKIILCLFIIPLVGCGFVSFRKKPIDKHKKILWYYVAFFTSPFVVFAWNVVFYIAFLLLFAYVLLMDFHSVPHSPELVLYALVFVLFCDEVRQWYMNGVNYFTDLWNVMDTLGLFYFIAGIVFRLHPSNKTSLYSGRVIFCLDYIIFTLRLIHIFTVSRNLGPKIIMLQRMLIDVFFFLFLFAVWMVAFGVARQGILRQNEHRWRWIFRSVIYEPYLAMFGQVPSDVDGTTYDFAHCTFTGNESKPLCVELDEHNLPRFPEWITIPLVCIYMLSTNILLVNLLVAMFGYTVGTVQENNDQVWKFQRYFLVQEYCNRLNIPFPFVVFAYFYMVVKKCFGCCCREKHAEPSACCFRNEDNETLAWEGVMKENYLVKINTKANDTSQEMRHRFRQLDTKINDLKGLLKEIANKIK

Row | Compound | inhibition at 0.5 µM [%] | IC50 [nM] | inhibition at 0.2 µM [%] | % Inh @ 0.2 μM [%] | % Inh @ 0.2 μM (0.2 µM) [%]
1 | O=C(C(Nc1ccc(F)cc1)c1ccc(Cl)cc1)N1CCCC1c1ccccc1Cl (stereo not drawn) [Cpd 116] | 98 | 80.3 | – | – | –
2 | O=C(C(Nc1ccc(F)cc1)c1ccc(Cl)cc1)N1CCCC1c1ccccc1F (stereo not drawn) [Cpd 117] | 101 | 47.5 | – | – | –
3 | COc1ccccc1C1CCCN1C(=O)C(Nc1ccc(F)cc1)c1ccc(Cl)cc1 (stereo not drawn) [Cpd 118] | 100 | 31.7 | – | – | –
4 | O=C(C(Nc1ccc(F)cc1)c1ccc(Cl)cc1)N1CCCC1c1ccccc1 (stereo not drawn) [Cpd 119] | 100 | 69.7 | – | – | –
5 | O=C(C(Nc1ccc(F)cc1)c1ccc(Cl)cc1)N1Cc2ccccc2C1 (stereo not drawn) [Cpd 120] | 95 | 130 | – | – | –
6 | O=C(C(Nc1ccc(F)cc1)c1ccc(Cl)cc1)N1Cc2cccc(F)c2C1 (stereo not drawn) [Cpd 121] | 97 | 125 | – | – | –
7 | O=C(C(Nc1ccc(F)cc1F)c1ccc(Cl)cc1)N1CCCC1c1ccccc1Cl (stereo not drawn) [Cpd 122] | 96 | 147 | – | – | –
8 | O=C(C(Nc1ccc(F)cc1F)c1ccc(Cl)cc1)N1CCCC1c1ccccc1F (stereo not drawn) [Cpd 123] | 97 | 101 | – | – | –
9 | COc1ccccc1C1CCCN1C(=O)C(Nc1ccc(F)cc1F)c1ccc(Cl)cc1 (stereo not drawn) [Cpd 124] | 98 | 81.7 | – | – | –
10 | O=C(C(Nc1ccc(F)cc1F)c1ccc(Cl)cc1)N1CCCC1c1ccccc1 (stereo not drawn) [Cpd 125] | 96 | 62.3 | – | – | –
11 | O=C(C(Nc1ccc(F)cc1F)c1ccc(Cl)cc1)N1Cc2ccccc2C1 (stereo not drawn) [Cpd 126] | 100 | 111 | – | – | –
12 | O=C(C(Nc1ccc(F)cc1F)c1ccc(Cl)cc1)N1Cc2cccc(F)c2C1 (stereo not drawn) [Cpd 127] | 97 | 86.9 | – | – | –
13 | O=C(C(Nc1ccccc1F)c1ccc(C(F)(F)F)cc1)N1CCCC1c1cccc(F)c1 (stereo not drawn) [Cpd 132] | 99 | 9 | – | – | –
14 | O=C(C(Nc1ccccc1F)c1ccc(C(F)(F)F)cc1)N1CCCC1c1ccc(F)cc1 (stereo not drawn) [Cpd 135] | 100 | 37.4 | – | – | –
15 | COc1ccc(NC(C(=O)N2CCCC2c2ccccc2Cl)c2ccc(Cl)cc2)cc1 (stereo not drawn) [Cpd 136] | 90 | 193 | – | – | –
16 | COc1ccc(NC(C(=O)N2CCCC2c2ccccc2F)c2ccc(Cl)cc2)cc1 (stereo not drawn) [Cpd 137] | 81 | 101 | – | – | –
17 | COc1ccc(NC(C(=O)N2CCCC2c2ccccc2OC)c2ccc(Cl)cc2)cc1 (stereo not drawn) [Cpd 138] | 95 | 119 | – | – | –
18 | COc1ccc(NC(C(=O)N2CCCC2c2ccccc2)c2ccc(Cl)cc2)cc1 (stereo not drawn) [Cpd 139] | 81 | 116 | – | – | –
19 | COc1ccc(NC(C(=O)N2Cc3ccccc3C2)c2ccc(Cl)cc2)cc1 (stereo not drawn) [Cpd 140] | 97 | 131 | – | – | –
20 | COc1ccc(NC(C(=O)N2Cc3cccc(F)c3C2)c2ccc(Cl)cc2)cc1 (stereo not drawn) [Cpd 141] | 79 | 188 | – | – | –
21 | O=C(C(Nc1ccccc1)c1ccc(Cl)cc1)N1CCCC1c1ccccc1F (stereo not drawn) [Cpd 142] | 97 | 18 | – | – | –

Row | Compound | inhibition at 0.5 µM [%] | IC50 [nM] | inhibition at 0.2 µM [%] | % Inh @ 0.2 μM [%] | % Inh @ 0.2 μM (0.2 µM) [%]
22 | O=C(C(Nc1c(F)cccc1F)c1ccc(Cl)cc1)N1CCCC1c1ccccc1Cl (stereo not drawn) [Cpd 143] | 101 | 25 | – | – | –
23 | O=C(C(Nc1c(F)cccc1F)c1ccc(Cl)cc1)N1CCCC1c1ccccc1F (stereo not drawn) [Cpd 144] | 102 | 11 | – | – | –
24 | COc1ccccc1C1CCCN1C(=O)C(Nc1c(F)cccc1F)c1ccc(Cl)cc1 (stereo not drawn) [Cpd 145] | 99 | 16 | – | – | –
25 | O=C(C(Nc1c(F)cccc1F)c1ccc(Cl)cc1)N1CCCC1c1ccccc1 (stereo not drawn) [Cpd 146] | 99 | 12 | – | – | –
26 | O=C(C(Nc1c(F)cccc1F)c1ccc(Cl)cc1)N1Cc2ccccc2C1 (stereo not drawn) [Cpd 147] | 93 | 132 | – | – | –
27 | COc1ccccc1C1CCCN1C(=O)C(Nc1ccccc1F)c1ccc(C(F)(F)F)cc1 (stereo not drawn) [Cpd 148] | 99 | 12 | – | – | –
28 | COc1ccccc1C1CCCN1C(=O)C(Nc1cccc(F)c1F)c1ccc(Cl)cc1 (stereo not drawn) [Cpd 167] | 97 | 34 | – | – | –
29 | O=C(C(Nc1cccc(F)c1F)c1ccc(Cl)cc1)N1CCCC1c1ccccc1 (stereo not drawn) [Cpd 168] | 97 | 35 | – | – | –
30 | O=C(C(Nc1cccc(F)c1F)c1ccc(Cl)cc1)N1Cc2ccccc2C1 (stereo not drawn) [Cpd 169] | 92 | 142 | – | – | –
31 | O=C(C(Nc1cc(F)ccc1F)c1ccc(Cl)cc1)N1CCCC1c1ccccc1F (stereo not drawn) [Cpd 170] | – | 26.5 | 100 | – | –
32 | O=C(C(Nc1cc(F)ccc1F)c1ccc(Cl)cc1)N1CCCC1c1ccccc1Cl (stereo not drawn) [Cpd 171] | – | 41.8 | 98 | – | –
33 | COc1ccccc1C1CCCN1C(=O)C(Nc1cc(F)ccc1F)c1ccc(Cl)cc1 (stereo not drawn) [Cpd 172] | – | 29.6 | 102 | – | –
34 | O=C(C(Nc1cc(F)ccc1F)c1ccc(Cl)cc1)N1CCCC1c1ccccc1 (stereo not drawn) [Cpd 173] | – | 35.6 | 103 | – | –
35 | O=C(C(Nc1cc(F)ccc1F)c1ccc(Cl)cc1)N1Cc2ccccc2C1 (stereo not drawn) [Cpd 174] | – | 45.2 | 98 | – | –
36 | CN(C)c1ccc(C2CCCN2C(=O)C(Nc2ccccc2F)c2ccc(C(F)(F)F)cc2)cc1 (stereo not drawn) [Cpd 178] | – | 10 | 100 | – | –
37 | Cc1c(C(Cc2ccccc2F)C(=O)N2Cc3ccccc3C2)sc2ccccc12 (stereo not drawn) [Cpd 179] | – | 38 | 96 | – | –
38 | O=C(C(Nc1c(F)cccc1F)c1ccc(Br)cc1)N1CCC[C@H]1c1ccccc1F (stereo partly drawn) [Cpd 181] | – | 5 | 96 | – | –
39 | CCOC(=O)c1ccc(C(Nc2c(F)cccc2F)C(=O)N2CCC[C@H]2c2ccccc2F)cc1 (stereo partly drawn) [Cpd 183, 4-{1-(2,6-Difluoro-phenylamino)-2-[(2S)-2-(2-fluoro-phenyl)-pyrrolidin-1-yl]-2-oxo-ethyl}-benzoic acid ethyl ester] | – | 10 | 99 | – | –
40 | O=C(C(Nc1ccccc1F)c1ccc(C(F)(F)F)cc1)N1CCCC1c1ccccc1Cl (stereo not drawn) [Cpd 188] | – | – | – | 30 | –
41 | O=C(N1CCCC1c1ccccc1)C1(c2ccc(C(F)(F)F)cc2)CCc2ccccc2N1 (stereo not drawn) [Cpd 194, (2-Phenyl-pyrrolidin-1-yl)-[2-(4-trifluoromethyl-phenyl)-1,2,3,4-tetrahydro-quinolin-2-yl]-methanone] | – | 160 | 70 | – | –
42 | COC(=O)C1CCC(c2ccccc2)N1C(=O)C(Nc1ccccc1F)c1ccc(Br)cc1 (stereo not drawn) [Cpd 195] | – | – | – | – | 32

Row | Compound | inhibition at 0.5 µM [%] | IC50 [nM] | inhibition at 0.2 µM [%] | % Inh @ 0.2 μM [%] | % Inh @ 0.2 μM (0.2 µM) [%]
43 | COC(=O)C1CCC(c2ccccc2)N1C(=O)C(Nc1ccccc1F)c1ccc(Br)cc1 (stereo not drawn) [Cpd 196] | – | – | – | – | 41
44 | O=C(C(Nc1ccccc1F)c1ccc(C(F)(F)F)cc1)N1CCCC1c1ccncc1 (stereo not drawn) [Cpd 197] | – | 19 | 97 | – | –
45 | CC(C)(O)c1ccccc1OC(C(=O)N1CCCC1c1ccccc1F)c1ccc(C(F)(F)F)cc1 (stereo not drawn) [Cpd 199, 1-[2-(2-Fluoro-phenyl)-pyrrolidin-1-yl]-2-[2-(1-hydroxy-1-methyl-ethyl)-phenoxy]-2-(4-trifluoromethyl-phenyl)-ethanone] | – | – | 62 | – | –
46 | O=C(C(Cc1ccccc1F)c1ccc(C(F)(F)F)cc1)N1Cc2ccccc2C1 (stereo not drawn) [Cpd 200] | – | 55 | 89 | – | –
47 | O=C(C(Cc1ccccc1F)c1ccc(C(F)(F)F)cc1)N1CCCC1c1ccccc1F (stereo not drawn) [Cpd 201, 3-(2-Fluoro-phenyl)-1-[2-(2-fluoro-phenyl)-pyrrolidin-1-yl]-2-(4-trifluoromethyl-phenyl)-propan-1-one] | – | 32 | 99 | – | –
48 | O=C(C(Nc1ccccc1F)c1ccc(C(F)(F)F)cc1)N1CCCC1c1ccccn1 (stereo not drawn) [Cpd 202] | – | 25 | 100 | – | –
49 | O=C(C(Nc1ccccc1F)c1ccc(C(F)(F)F)cc1)N1CCCC1c1cccnc1 (stereo not drawn) [Cpd 203] | – | 7 | 102 | – | –
50 | COC(=O)C1CCC(c2ccccc2)N1C(=O)C(Nc1ccccc1)c1ccc(Cl)cc1 (stereo not drawn) [Cpd 207] | – | – | – | – | 47
51 | COC(=O)C1CCC(c2ccccc2)N1C(=O)C(Nc1c(F)cccc1F)c1ccc(Br)cc1 (stereo not drawn) [Cpd 210] | – | 7 | 99 | – | –
52 | COC(=O)C1CCC(c2ccccc2)N1C(=O)C(Nc1c(F)cccc1F)c1ccc(Br)cc1 (stereo not drawn) [Cpd 211] | – | – | – | – | 69
53 | COC(=O)C1CCC(c2ccccc2)N1C(=O)C(Nc1ccccc1)c1ccc(Cl)cc1 (stereo not drawn) [Cpd 213] | – | – | – | – | 63
54 | O=C(C(Nc1ccccc1)c1cccnc1)N1CCCC1c1ccccc1F (stereo not drawn) [Cpd 214, 1-[2-(2-Fluoro-phenyl)-pyrrolidin-1-yl]-2-phenylamino-2-pyridin-3-yl-ethanone] | – | – | 58 | – | –
55 | O=C(C(Nc1ccccc1)c1ccccn1)N1CCCC1c1ccccc1F (stereo not drawn) [Cpd 217] | – | – | – | – | 26
56 | O=C(C(Nc1c(F)cccc1F)c1ccc(CO)cc1)N1CCC[C@H]1c1ccccc1F (stereo partly drawn) [Cpd 219, 2-(2,6-Difluoro-phenylamino)-1-[(2S)-2-(2-fluoro-phenyl)-pyrrolidin-1-yl]-2-(4-hydroxymethyl-phenyl)-ethanone] | – | 68 | 89 | – | –
57 | COC(=O)c1ccc(C2CCCN2C(=O)C(Nc2ccccc2F)c2ccc(C(F)(F)F)cc2)cc1 (stereo not drawn) [Cpd 220] | – | 48 | 96 | – | –
58 | O=C(O)c1ccc(C2CCCN2C(=O)C(Nc2ccccc2F)c2ccc(C(F)(F)F)cc2)cc1 (stereo not drawn) [Cpd 222] | – | 66 | 93 | – | –
59 | O=C(C(Nc1ccccc1F)c1cc2ccccc2s1)N1CCCC1c1ccccc1F (stereo not drawn) [Cpd 225, 2-Benzo[b]thiophen-2-yl-2-(2-fluoro-phenylamino)-1-[2-(2-fluoro-phenyl)-pyrrolidin-1-yl]-ethanone] | – | 7 | 98 | – | –
60 | O=C(C(Nc1ccccc1)c1cnc2ccccc2c1)N1CCCC1c1ccccc1F (stereo not drawn) [Cpd 226] | – | 42.5 | – | – | –
61 | O=C(C(c1ccc(C(F)(F)F)cc1)N1CCc2ccccc21)N1CCCC1c1ccccc1 (stereo not drawn) [Cpd 227] | – | 30.6 | – | – | –

From patent publication US8143259B2, “Cold menthol receptor antagonists” (Janssen Pharmaceutica, NV, priority 2008, dated 2012)
